ChEMBL document CHEMBL4507273 (2021)
pKi: −log10 of the molar value.

Experiments:
[1] = target: Tyrosine-protein kinase Srms (Homo sapiens) (UniProt Q9H3Y6); settings: Compound concentration 1000.0 nM
[2] = target: G protein-coupled receptor kinase 3 (Homo sapiens) (UniProt P35626); settings: Compound concentration 1000.0 nM
[3] = target: Ephrin type-B receptor 1 (Homo sapiens) (UniProt P54762); settings: Compound concentration 1000.0 nM
[4] = target: T1, Alpha-2A adrenergic receptor (Homo sapiens) (UniProt P08913); settings: Compound concentration 10.0 uM
T1 sequence (whole entry): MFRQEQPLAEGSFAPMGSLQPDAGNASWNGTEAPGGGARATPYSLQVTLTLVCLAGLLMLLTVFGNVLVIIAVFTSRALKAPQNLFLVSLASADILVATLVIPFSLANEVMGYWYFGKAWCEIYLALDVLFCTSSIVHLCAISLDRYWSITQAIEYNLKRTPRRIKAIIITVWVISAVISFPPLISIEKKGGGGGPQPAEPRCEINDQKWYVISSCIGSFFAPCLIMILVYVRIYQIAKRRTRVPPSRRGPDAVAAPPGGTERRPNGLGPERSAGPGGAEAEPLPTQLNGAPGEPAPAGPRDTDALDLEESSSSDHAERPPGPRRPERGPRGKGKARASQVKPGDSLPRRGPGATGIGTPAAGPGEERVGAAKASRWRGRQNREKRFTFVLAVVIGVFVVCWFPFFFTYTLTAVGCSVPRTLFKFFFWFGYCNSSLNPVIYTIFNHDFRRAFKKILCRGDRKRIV

[5] = target: Serine/threonine-protein kinase RIO3 (Homo sapiens) (UniProt O14730); settings: Compound concentration 1000.0 nM
[6] = system: ALK tyrosine kinase receptor (Homo sapiens), Q9UM73 [L1196M]; settings: Compound concentration 1000.0 nM
[7] = target: Calcium/calmodulin-dependent protein kinase kinase 1 (Homo sapiens) (UniProt Q8N5S9); settings: Compound concentration 1000.0 nM
[8] = target: Serine/threonine-protein kinase WNK1 (Homo sapiens) (UniProt Q9H4A3); settings: Compound concentration 1000.0 nM
[9] = target: T2, Alpha-2B adrenergic receptor (Homo sapiens, UniProt P18089); assay: GPCRScan assay: inhibition of Alpha2B; parameters: radioligand conc. used [nm] 1.5 – 2.0, parental cells HEKT; settings: for pKi: read-out: Ki
T2 sequence (P18089 whole entry): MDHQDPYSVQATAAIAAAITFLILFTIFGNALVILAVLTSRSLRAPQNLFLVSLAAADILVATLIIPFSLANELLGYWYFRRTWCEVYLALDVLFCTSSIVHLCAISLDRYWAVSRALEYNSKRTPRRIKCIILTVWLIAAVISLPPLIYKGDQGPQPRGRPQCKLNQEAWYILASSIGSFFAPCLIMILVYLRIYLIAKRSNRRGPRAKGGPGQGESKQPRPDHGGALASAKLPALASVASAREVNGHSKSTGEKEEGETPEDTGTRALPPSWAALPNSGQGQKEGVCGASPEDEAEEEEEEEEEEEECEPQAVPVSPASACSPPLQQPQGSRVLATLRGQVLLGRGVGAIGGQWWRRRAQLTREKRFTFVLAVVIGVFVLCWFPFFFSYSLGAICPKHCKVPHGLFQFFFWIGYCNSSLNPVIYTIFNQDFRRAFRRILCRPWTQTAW

[10] = target: Myosin light chain kinase, smooth muscle (Homo sapiens) (UniProt Q15746); settings: Compound concentration 1000.0 nM
[11] = system: Receptor-type tyrosine-protein kinase FLT3 (Homo sapiens), P36888 [UNDEFINED MUTATION]; settings: Compound concentration 1000.0 nM
[12] = target: Phosphorylase b kinase regulatory subunit alpha, liver isoform (Homo sapiens) (UniProt P46019); settings: Compound concentration 1000.0 nM
[13] = target: Serine/threonine-protein kinase MRCK beta (Homo sapiens) (UniProt Q9Y5S2); settings: Compound concentration 1000.0 nM
[14] = target: Tyrosine-protein kinase CSK (Homo sapiens) (UniProt P41240); settings: Compound concentration 1000.0 nM
[15] = system: Mast/stem cell growth factor receptor Kit (Homo sapiens), P10721 [V559D,T670I]; settings: Compound concentration 1000.0 nM
[16] = target: Myosin light chain kinase 2, skeletal/cardiac muscle (Homo sapiens) (UniProt Q9H1R3); settings: Compound concentration 1000.0 nM
Chain of Myosin light chain kinase 2, skeletal/cardiac muscle (Homo sapiens) (Q9H1R3 whole entry): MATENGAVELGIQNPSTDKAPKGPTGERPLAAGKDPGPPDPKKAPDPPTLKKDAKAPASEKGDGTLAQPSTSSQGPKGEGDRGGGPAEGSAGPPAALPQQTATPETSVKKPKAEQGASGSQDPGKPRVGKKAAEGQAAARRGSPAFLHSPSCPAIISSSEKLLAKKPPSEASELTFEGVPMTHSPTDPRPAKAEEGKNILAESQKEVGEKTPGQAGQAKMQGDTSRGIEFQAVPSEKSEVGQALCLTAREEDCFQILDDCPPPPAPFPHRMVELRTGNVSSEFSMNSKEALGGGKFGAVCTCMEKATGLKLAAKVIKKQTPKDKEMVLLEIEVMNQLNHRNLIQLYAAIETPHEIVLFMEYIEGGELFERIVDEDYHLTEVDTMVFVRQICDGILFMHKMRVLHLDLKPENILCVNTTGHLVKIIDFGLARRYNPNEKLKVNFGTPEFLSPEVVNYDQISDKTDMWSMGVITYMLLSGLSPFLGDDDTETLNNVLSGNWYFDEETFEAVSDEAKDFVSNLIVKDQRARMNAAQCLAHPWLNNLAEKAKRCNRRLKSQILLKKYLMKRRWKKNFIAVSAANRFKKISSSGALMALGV

[17] = target: Calcium/calmodulin-dependent protein kinase type 1D (Homo sapiens) (UniProt Q8IU85); settings: Compound concentration 1000.0 nM
[18] = system: Tyrosine-protein kinase ABL1 (Homo sapiens), P00519 [M351T]; settings: Compound concentration 1000.0 nM
[19] = target: Cyclin-dependent kinase 8 (Homo sapiens) (UniProt P49336); settings: Compound concentration 1000.0 nM
Chain of Cyclin-dependent kinase 8 (Homo sapiens) (P49336 whole entry): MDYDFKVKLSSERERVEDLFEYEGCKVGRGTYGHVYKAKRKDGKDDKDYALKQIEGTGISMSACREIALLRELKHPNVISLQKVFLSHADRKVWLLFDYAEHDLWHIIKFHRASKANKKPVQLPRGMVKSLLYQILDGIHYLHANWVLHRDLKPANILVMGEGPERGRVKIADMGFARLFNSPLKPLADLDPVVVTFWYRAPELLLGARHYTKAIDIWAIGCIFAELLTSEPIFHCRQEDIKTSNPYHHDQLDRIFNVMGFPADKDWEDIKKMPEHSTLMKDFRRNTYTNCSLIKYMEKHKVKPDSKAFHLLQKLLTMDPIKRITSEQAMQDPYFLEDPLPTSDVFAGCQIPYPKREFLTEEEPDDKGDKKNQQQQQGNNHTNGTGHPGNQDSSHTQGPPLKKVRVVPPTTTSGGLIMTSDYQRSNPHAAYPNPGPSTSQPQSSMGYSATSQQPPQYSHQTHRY

[20] = system: ALK tyrosine kinase receptor (Homo sapiens), Q9UM73 [C1156Y]; settings: Compound concentration 1000.0 nM
[21] = target: Ribosomal protein S6 kinase alpha-5 (Homo sapiens) (UniProt O75582); settings: Compound concentration 1000.0 nM
Chain of Ribosomal protein S6 kinase alpha-5 (Homo sapiens) (O75582 whole entry, looked up): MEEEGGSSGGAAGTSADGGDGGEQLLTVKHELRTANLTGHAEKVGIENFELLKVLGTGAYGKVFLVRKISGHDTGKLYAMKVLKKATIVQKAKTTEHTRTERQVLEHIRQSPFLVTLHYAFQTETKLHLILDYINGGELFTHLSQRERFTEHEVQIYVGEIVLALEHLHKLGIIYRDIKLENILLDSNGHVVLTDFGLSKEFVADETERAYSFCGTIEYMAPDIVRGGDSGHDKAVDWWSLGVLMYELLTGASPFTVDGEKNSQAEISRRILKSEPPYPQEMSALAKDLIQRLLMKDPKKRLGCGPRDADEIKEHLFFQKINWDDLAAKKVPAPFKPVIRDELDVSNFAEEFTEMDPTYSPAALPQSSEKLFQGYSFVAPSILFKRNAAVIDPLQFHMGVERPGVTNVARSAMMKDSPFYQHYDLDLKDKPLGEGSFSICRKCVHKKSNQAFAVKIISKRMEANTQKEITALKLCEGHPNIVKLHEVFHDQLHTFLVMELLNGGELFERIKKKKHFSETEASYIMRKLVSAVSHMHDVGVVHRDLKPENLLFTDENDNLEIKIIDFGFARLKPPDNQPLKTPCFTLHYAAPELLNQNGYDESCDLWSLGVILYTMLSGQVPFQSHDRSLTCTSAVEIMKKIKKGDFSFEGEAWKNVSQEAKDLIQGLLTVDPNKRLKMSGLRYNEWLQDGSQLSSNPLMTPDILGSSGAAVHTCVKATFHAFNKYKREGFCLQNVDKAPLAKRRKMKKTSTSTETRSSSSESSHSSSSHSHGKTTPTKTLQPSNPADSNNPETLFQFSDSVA

[22] = target: Rhodopsin kinase GRK7 (Homo sapiens) (UniProt Q8WTQ7); settings: Compound concentration 1000.0 nM
[23] = target: D(4) dopamine receptor (Homo sapiens) (UniProt P21917); settings: Compound concentration 10.0 uM
[24] = target: Tyrosine-protein kinase Fer (Homo sapiens) (UniProt P16591); settings: Compound concentration 1000.0 nM
[25] = target: Alpha-1D adrenergic receptor (Homo sapiens) (UniProt P25100); settings: Compound concentration 10.0 uM
[26] = target: Mitogen-activated protein kinase kinase kinase kinase 5 (Homo sapiens) (UniProt Q9Y4K4); settings: Compound concentration 1000.0 nM
Chain of Mitogen-activated protein kinase kinase kinase kinase 5 (Homo sapiens) (Q9Y4K4 whole entry, looked up): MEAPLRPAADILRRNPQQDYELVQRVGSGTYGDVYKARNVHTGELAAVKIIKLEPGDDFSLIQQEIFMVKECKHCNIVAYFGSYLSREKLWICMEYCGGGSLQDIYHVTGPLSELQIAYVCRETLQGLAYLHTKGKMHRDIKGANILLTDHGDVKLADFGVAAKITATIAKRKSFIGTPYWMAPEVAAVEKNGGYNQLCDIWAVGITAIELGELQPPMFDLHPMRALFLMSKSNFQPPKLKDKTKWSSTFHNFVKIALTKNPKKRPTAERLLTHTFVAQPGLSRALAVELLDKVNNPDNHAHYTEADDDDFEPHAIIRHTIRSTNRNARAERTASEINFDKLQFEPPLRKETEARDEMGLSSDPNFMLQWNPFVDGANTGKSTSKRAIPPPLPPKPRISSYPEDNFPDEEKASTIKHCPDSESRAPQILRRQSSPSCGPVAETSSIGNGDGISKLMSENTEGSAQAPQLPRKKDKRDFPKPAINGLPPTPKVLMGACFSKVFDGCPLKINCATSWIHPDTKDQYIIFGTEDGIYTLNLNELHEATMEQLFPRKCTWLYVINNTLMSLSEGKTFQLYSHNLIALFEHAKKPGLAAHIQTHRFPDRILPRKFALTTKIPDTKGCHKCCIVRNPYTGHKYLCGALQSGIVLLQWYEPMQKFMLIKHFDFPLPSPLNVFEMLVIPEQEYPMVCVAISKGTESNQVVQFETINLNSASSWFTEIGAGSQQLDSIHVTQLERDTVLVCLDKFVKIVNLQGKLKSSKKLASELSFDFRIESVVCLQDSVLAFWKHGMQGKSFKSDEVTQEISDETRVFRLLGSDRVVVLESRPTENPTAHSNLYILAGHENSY

[27] = target: Histamine H3 receptor (Homo sapiens) (UniProt Q9Y5N1); settings: Compound concentration 10.0 uM
Chain of Histamine H3 receptor (Homo sapiens) (Q9Y5N1 whole entry): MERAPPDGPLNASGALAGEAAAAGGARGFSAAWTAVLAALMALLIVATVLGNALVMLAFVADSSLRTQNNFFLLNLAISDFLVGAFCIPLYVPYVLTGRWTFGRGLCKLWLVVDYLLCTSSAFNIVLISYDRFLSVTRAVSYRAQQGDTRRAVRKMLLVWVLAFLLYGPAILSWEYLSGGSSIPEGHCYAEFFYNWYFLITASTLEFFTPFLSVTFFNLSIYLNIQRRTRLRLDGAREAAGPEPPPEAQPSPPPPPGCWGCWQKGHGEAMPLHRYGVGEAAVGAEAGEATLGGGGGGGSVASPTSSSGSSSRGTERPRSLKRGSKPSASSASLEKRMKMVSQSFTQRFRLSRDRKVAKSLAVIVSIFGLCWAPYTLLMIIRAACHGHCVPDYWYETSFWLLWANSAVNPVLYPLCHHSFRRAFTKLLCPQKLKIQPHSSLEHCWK

[28] = target: Macrophage colony-stimulating factor 1 receptor (Homo sapiens) (UniProt P07333); settings: Compound concentration 1000.0 nM
[29] = target: Tyrosine-protein kinase JAK1 (Homo sapiens) (UniProt P23458); settings: Compound concentration 1000.0 nM
Chain of Tyrosine-protein kinase JAK1 (Homo sapiens) (P23458 whole entry): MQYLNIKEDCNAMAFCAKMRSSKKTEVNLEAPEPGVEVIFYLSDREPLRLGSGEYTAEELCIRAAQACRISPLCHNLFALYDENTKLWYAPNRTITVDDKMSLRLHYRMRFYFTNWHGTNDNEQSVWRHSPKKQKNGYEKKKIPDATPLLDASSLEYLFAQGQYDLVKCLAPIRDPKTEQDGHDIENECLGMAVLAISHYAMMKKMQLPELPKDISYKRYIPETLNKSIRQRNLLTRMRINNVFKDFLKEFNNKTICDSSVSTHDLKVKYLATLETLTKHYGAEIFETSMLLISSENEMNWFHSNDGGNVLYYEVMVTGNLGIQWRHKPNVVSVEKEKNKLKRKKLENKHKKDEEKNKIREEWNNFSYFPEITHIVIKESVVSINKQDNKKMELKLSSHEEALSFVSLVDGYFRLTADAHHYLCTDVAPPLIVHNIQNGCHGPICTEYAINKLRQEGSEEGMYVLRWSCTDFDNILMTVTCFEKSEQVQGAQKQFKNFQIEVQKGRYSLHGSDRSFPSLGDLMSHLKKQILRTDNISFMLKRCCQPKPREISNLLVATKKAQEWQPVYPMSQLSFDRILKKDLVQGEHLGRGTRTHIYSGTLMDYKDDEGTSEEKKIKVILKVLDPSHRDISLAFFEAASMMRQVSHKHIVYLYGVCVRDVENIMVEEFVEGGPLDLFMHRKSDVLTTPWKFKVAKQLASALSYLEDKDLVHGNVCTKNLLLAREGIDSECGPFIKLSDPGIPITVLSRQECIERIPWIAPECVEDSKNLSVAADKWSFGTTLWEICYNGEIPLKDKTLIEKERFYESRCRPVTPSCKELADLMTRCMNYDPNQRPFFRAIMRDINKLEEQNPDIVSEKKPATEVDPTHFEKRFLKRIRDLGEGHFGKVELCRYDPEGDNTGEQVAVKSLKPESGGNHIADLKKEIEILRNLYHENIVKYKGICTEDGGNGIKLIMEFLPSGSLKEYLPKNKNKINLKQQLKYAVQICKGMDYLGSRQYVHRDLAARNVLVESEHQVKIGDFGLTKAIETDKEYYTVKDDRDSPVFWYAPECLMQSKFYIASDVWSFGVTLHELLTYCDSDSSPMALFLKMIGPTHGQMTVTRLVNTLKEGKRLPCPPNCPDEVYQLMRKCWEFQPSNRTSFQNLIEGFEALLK

[30] = target: Ribosomal protein S6 kinase alpha-2 (Homo sapiens) (UniProt Q15349); settings: Compound concentration 1000.0 nM
[31] = target: Mitogen-activated protein kinase kinase kinase 3 (Homo sapiens) (UniProt Q99759); settings: Compound concentration 1000.0 nM
[32] = target: Cyclin-dependent kinase 4 (Homo sapiens) (UniProt P11802); settings: Compound concentration 1000.0 nM
[33] = system: Epidermal growth factor receptor (Homo sapiens), P00533 [G719C]; settings: Compound concentration 1000.0 nM

Chain of G protein-coupled receptor kinase 3 (Homo sapiens) (P35626 whole entry): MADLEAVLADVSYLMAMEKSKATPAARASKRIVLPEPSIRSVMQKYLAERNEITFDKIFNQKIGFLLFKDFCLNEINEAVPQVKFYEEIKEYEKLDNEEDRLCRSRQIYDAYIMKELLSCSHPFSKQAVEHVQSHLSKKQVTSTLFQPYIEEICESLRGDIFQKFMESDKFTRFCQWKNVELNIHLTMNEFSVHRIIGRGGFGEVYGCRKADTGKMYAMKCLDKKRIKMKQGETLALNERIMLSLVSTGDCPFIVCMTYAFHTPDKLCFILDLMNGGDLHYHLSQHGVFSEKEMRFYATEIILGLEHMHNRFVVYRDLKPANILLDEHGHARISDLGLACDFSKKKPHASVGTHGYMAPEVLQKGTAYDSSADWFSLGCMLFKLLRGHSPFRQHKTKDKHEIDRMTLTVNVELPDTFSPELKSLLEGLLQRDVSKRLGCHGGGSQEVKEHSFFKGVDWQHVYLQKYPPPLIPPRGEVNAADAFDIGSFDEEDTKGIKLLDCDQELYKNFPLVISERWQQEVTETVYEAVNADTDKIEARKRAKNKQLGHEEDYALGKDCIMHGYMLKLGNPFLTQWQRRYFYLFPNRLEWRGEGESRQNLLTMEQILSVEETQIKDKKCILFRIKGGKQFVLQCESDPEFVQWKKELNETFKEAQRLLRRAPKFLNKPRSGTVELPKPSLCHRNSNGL

Row | Compound | residual activity [1] [%] | residual activity [2] [%] | residual activity [3] [%] | inhibition [4] [%] | residual activity [5] [%] | residual activity [6] [%] | residual activity [7] [%] | residual activity [8] [%] | pKi [9] | residual activity [10] [%] | residual activity [11] [%] | residual activity [12] [%] | residual activity [13] [%] | residual activity [14] [%] | residual activity [15] [%] | residual activity [16] [%] | residual activity [17] [%] | residual activity [18] [%] | residual activity [19] [%] | residual activity [20] [%] | also measured
1 | CNCc1ccccc1-c1csc([C@@H](C)Nc2nc(C)nc3cc(OC)c(OC)cc23)c1 [BAY-293] | 92 | 98 | 100 | 91.7 | 94 | 100 | 100 | 88 | 5.91 | 84 | 89 | 100 | 89 | 100 | 80 | 91 | 100 | 74 | 68 | 100 | residual activity [21]: 89%; residual activity [22]: 83%; inhibition [23]: 56.7%; residual activity [24]: 100%; inhibition [25]: 75%; residual activity [26]: 100%; inhibition [27]: 26.7%; residual activity [28]: 100%; residual activity [29]: 73%; residual activity [30]: 100%; residual activity [31]: 83%; residual activity [32]: 100%; residual activity [33]: 63%
2 | CNCc1ccccc1-c1csc([C@H](C)Nc2nc(C)nc3cc(OC)c(OC)cc23)c1 [BAY-294] | 88 | 91 | 100 | 93.5 | 100 | 93 | 99 | 100 | 6.07 | 94 | 99 | 100 | 100 | 100 | 100 | 100 | 100 | 85 | 84 | 100 | Ki ([9]; read-out: pKi (converted)): 813 nM; residual activity [21]: 82%; residual activity [22]: 89%; inhibition [23]: 31%; residual activity [24]: 100%; inhibition [25]: 81.2%; residual activity [26]: 100%; inhibition [27]: 24.6%; residual activity [28]: 100%; residual activity [29]: 68%; residual activity [30]: 100%; residual activity [31]: 87%; residual activity [32]: 100%; residual activity [33]: 85%
